Assay results: patent US10259810B2, “N-sulfonylated pyrazolo[3,4-b]pyridin-6-carboxamides and method of use” (AbbVie S.à.r.l., priority 2015, dated 2019)

Tests used:
ΔF508-CFTR [1] = biological target: T1, ΔF508-CFTR (Homo sapiens, UniProt P13569, DEL508-508); experiment: CFTR cell surface levels using HRP-tagged ΔF508-CFTR expressing CFBE cells, in the presence of a co-corrector; assay type: cell-based; settings: HRP-tagged ΔF508-CFTR CFBE cells, in the presence of 3 μM co-corrector; for EC50: read-out: EC50
T1 construct: host or cells: CFBE41o-, doxycycline-inducible
Summary of the method: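 Chemiluminescent read-out of surface HRP (15 min, dark) after PBS washes. Activity is normalized as 100×(sample−DMSO)/(3 μM co-corrector alone−DMSO).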

ΔF508-CFTR [2] = biological target: T1, ΔF508-CFTR; experiment: CFTR cell surface levels using HRP-tagged ΔF508-CFTR expressing CFBE cells, intrinsic corrector capacity; assay type: cell-based; parameters: % Activation: concentration or dose not given beside the values; settings: HRP-tagged ΔF508-CFTR expressing CFBE41o- cells, compound alone (intrinsic corrector capacity), 20 hours at 33° C.; for EC50: read-out: EC50
Summary of the method: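 Surface ΔF508-CFTR was measured as HRP chemiluminescence from an extracellular-loop-4 tag, expressed as percent activity between DMSO and a […] corrector control.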

T1 sequence (P13569 with tags, fused parts or gaps DEL508-508): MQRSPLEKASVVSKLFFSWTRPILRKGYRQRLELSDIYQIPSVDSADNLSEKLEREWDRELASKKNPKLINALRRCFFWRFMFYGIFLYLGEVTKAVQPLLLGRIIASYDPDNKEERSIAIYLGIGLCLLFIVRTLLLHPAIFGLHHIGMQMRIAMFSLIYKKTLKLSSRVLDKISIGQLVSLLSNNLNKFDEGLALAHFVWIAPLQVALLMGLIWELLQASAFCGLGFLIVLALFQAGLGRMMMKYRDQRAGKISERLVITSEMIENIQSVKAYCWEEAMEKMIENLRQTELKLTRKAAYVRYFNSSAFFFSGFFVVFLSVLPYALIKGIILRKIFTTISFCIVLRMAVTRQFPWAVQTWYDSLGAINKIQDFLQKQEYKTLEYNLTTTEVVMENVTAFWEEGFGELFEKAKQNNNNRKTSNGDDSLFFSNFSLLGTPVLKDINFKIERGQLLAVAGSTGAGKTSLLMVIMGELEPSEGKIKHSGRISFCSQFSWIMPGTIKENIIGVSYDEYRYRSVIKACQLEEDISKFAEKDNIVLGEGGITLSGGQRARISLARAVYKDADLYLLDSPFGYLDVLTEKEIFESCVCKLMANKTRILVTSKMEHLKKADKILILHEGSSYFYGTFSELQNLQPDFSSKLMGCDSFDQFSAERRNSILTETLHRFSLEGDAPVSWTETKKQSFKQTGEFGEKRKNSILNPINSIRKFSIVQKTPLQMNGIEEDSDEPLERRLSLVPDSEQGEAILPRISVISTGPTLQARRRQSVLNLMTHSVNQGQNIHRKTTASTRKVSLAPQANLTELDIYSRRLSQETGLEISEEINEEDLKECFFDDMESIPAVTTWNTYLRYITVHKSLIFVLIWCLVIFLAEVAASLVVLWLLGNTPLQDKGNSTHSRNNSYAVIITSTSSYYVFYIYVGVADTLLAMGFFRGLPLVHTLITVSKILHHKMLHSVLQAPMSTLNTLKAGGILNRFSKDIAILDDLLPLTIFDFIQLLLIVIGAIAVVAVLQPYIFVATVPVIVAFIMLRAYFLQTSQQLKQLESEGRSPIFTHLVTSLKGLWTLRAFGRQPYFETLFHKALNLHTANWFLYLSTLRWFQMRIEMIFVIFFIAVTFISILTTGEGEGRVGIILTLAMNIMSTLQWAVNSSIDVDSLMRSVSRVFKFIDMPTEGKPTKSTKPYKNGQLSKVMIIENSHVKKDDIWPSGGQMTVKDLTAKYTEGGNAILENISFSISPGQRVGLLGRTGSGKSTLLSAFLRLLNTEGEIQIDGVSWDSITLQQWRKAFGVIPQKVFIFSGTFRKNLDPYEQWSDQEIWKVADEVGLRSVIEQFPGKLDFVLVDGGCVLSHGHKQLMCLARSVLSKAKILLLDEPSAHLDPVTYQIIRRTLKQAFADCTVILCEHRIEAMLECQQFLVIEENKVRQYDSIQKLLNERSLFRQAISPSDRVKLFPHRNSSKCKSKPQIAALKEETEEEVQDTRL

| Compound | % Activation (ΔF508-CFTR [1]) [%] | EC50 (ΔF508-CFTR [1]) [nM] | % Activation (ΔF508-CFTR [2]) [%] | EC50 (ΔF508-CFTR [2]) [nM] |
| --- | --- | --- | --- | --- |
| CCS(=O)(=O)NC(=O)c1cc(-c2ccc(N3CCOCC3)nc2)c2c(C(C)C)nn(-c3ccccc3)c2n1 [Compound 35, N-(ethanesulfonyl)-4-[6-(morpholin-4-yl)pyridin-3-yl]-1-phenyl-3-(propan-2-yl)-1H-pyrazolo[3,4-b]pyridine-6-carboxamide] | 509.7 | 348 | 265.23 | 542 |
| CO[C@H]1C[C@@H](c2nn(-c3ccccc3)c3nc(C(=O)NS(C)(=O)=O)cc(-c4ccc(N5CCC(C#N)CC5)nc4)c32)C1 [Compound 194, 4-[6-(4-cyanopiperidin-1-yl)pyridin-3-yl]-N-(methanesulfonyl)-3-(cis-3-methoxycyclobutyl)-1-phenyl-1H-pyrazolo[3,4-b]pyridine-6-carboxamide] | 427.45 | 371 | 213.75 | 745 |
| COCC1CCN(c2cc(C(=O)NS(=O)(=O)c3cn[nH]c3)nc3c2c(C2CCC2)nn3-c2ccccc2)CC1 [Compound 253, 3-cyclobutyl-4-[4-(methoxymethyl)piperidin-1-yl]-1-phenyl-N-(1H-pyrazole-4-sulfonyl)-1H-pyrazolo[3,4-b]pyridine-6-carboxamide] | 454.4 | 251 | 174.6 | 676 |
| CC(C)c1nn(C2CCCCC2)c2nc(C(=O)NS(C)(=O)=O)cc(-c3ccc(N(C)C4CCOCC4)nc3)c12 [Compound 51, 1-cyclohexyl-N-(methanesulfonyl)-4-{6-[methyl(oxan-4-yl)amino]pyridin-3-yl}-3-(propan-2-yl)-1H-pyrazolo[3,4-b]pyridine-6-carboxamide] | 420.67 | 312 | 172.4 | 457 |
| CN(C)S(=O)(=O)NC(=O)c1cc(CN2CCOCC2)c2c(C3CCC3)nn(-c3ccc(F)cc3)c2n1 [Compound 520, 3-cyclobutyl-N-(dimethylsulfamoyl)-1-(4-fluorophenyl)-4-[(morpholin-4-yl)methyl]-1H-pyrazolo[3,4-b]pyridine-6-carboxamide] | 207.1 | 924 | 60 | 1060 |
| CS(=O)(=O)NC(=O)c1cc(N2CCC(COCc3ccccc3)CC2)c2c(C3CCC3)nn(-c3ccccc3)c2n1 [Compound 213, 4-{4-[(benzyloxy)methyl]piperidin-1-yl}-3-cyclobutyl-N-(methanesulfonyl)-1-phenyl-1H-pyrazolo[3,4-b]pyridine-6-carboxamide] | 469.6 | 337 | 267.5 | 546 |
| CC(C)c1nn(C2CCCOC2)c2nc(C(=O)NS(C)(=O)=O)cc(-c3ccc(N4CCC(C#N)CC4)nc3)c12 (stereo not drawn) [Compound 145, 4-[6-(4-cyanopiperidin-1-yl)pyridin-3-yl]-N-(methanesulfonyl)-1-(oxan-3-yl)-3-(propan-2-yl)-1H-pyrazolo[3,4-b]pyridine-6-carboxamide] | 271.43 | 636 | 112.03 | 1040 |
| COCCN(C)c1ccc(-c2cc(C(=O)NS(C)(=O)=O)nc3c2c(C(C)C)nn3-c2cccc(N(C)C)c2)cc1 [Compound 82, 1-[3-(dimethylamino)phenyl]-N-(methanesulfonyl)-4-{4-[(2-methoxyethyl)(methyl)amino]phenyl}-3-(propan-2-yl)-1H-pyrazolo[3,4-b]pyridine-6-carboxamide] | 535.93 | 383 | 366.27 | 472 |
| CC(C)c1nn(-c2ccnc(N3CCOCC3)c2)c2nc(C(=O)NS(C)(=O)=O)cc(-c3ccc(N4CCC(C#N)CC4)nc3)c12 [Compound 227, 4-[6-(4-cyanopiperidin-1-yl)pyridin-3-yl]-N-(methanesulfonyl)-1-[2-(morpholin-4-yl)pyridin-4-yl]-3-(propan-2-yl)-1H-pyrazolo[3,4-b]pyridine-6-carboxamide] | 378.2 | 307 | 216.8 | 449 |
| CN(C)S(=O)(=O)NC(=O)c1cc(N2CCC(N3CCOC(C)(C)C3)CC2)c2c(C3CCC3)nn(-c3ccc(F)cc3)c2n1 [Compound 573, 3-cyclobutyl-4-[4-(2,2-dimethylmorpholin-4-yl)piperidin-1-yl]-N-(dimethylsulfamoyl)-1-(4-fluorophenyl)-1H-pyrazolo[3,4-b]pyridine-6-carboxamide] | 467.57 | 58.5 | 270.53 | 104 |
| CCCCOC1CCN(c2cc(C(=O)NS(C)(=O)=O)nc3c2c(C(C)C)nn3-c2ccc(F)cc2)CC1 [Compound 172, 4-(4-butoxypiperidin-1-yl)-1-(4-fluorophenyl)-N-(methanesulfonyl)-3-(propan-2-yl)-1H-pyrazolo[3,4-b]pyridine-6-carboxamide] | 462.4 | 207 | 280.03 | 330 |
| CCS(=O)(=O)NC(=O)c1cc(N2CCC(COC)CC2)c2c(C3CCC3)nn(-c3ccccc3)c2n1 [Compound 403, 3-cyclobutyl-N-(ethanesulfonyl)-4-[4-(methoxymethyl)piperidin-1-yl]-1-phenyl-1H-pyrazolo[3,4-b]pyridine-6-carboxamide] | 507.35 | 25.6 | 389.2 | 30.2 |
| COCCN(C)c1cc(C(=O)NS(C)(=O)=O)nc2c1c(C1CCC1)nn2-c1ccccc1 [Compound 206, 3-cyclobutyl-N-(methanesulfonyl)-4-[(2-methoxyethyl)(methyl)amino]-1-phenyl-1H-pyrazolo[3,4-b]pyridine-6-carboxamide] | 387.03 | 890 | 169.03 | 1400 |
| CS(=O)(=O)NC(=O)c1cc(-c2ccc(N3CCC(C#N)CC3)nc2)c2c(n1)n(-c1ccccc1)nc2[C@H]1C[C@@H](F)C1 [Compound 209, 4-[6-(4-cyanopiperidin-1-yl)pyridin-3-yl]-3-(cis-3-fluorocyclobutyl)-N-(methanesulfonyl)-1-phenyl-1H-pyrazolo[3,4-b]pyridine-6-carboxamide] | 393.6 | 231 | 247.6 | 381 |
| CC1(C)CN(C2CCN(c3cc(C(=O)NS(C)(=O)=O)nc4c3c(C3CCC3)nn4-c3ccc(F)cc3)CC2)CCO1 [Compound 588, 3-cyclobutyl-4-[4-(2,2-dimethylmorpholin-4-yl)piperidin-1-yl]-1-(4-fluorophenyl)-N-(methanesulfonyl)-1H-pyrazolo[3,4-b]pyridine-6-carboxamide] | 571.2 | 29 | 366.8 | 126 |
| COC1CN(C2CCN(c3cc(C(=O)NS(C)(=O)=O)nc4c3c(C3CCC3)nn4-c3ccc(F)cc3)CC2)C1 [Compound 585, 3-cyclobutyl-1-(4-fluorophenyl)-N-(methanesulfonyl)-4-[4-(3-methoxyazetidin-1-yl)piperidin-1-yl]-1H-pyrazolo[3,4-b]pyridine-6-carboxamide] | 509.7 | 248 | 316.6 | 1240 |
| CC(C)c1nn(-c2cccc(N(C)C)n2)c2nc(C(=O)NS(C)(=O)=O)cc(-c3ccc(N4CCOCC4)cc3)c12 [Compound 125, 1-[6-(dimethylamino)pyridin-2-yl]-N-(methanesulfonyl)-4-[4-(morpholin-4-yl)phenyl]-3-(propan-2-yl)-1H-pyrazolo[3,4-b]pyridine-6-carboxamide] | 520.33 | 463 | 369.87 | 988 |
| CC(=O)Nc1ccc(-c2cc(C(=O)NS(C)(=O)=O)nc3c2c(C(C)C)nn3C2CCCCC2)cc1 [Compound 79, 4-(4-acetamidophenyl)-1-cyclohexyl-N-(methanesulfonyl)-3-(propan-2-yl)-1H-pyrazolo[3,4-b]pyridine-6-carboxamide] | 501.6 | 555 | 280.9 | 1230 |
| CS(=O)(=O)NC(=O)c1cc(-c2ccc(N3CCC(C#N)CC3)nc2)c2c(C3CCC3)nn(-c3ccnc(N4CCCC4)c3)c2n1 [Compound 189, 4-[6-(4-cyanopiperidin-1-yl)pyridin-3-yl]-3-cyclobutyl-N-(methanesulfonyl)-1-[2-(pyrrolidin-1-yl)pyridin-4-yl]-1H-pyrazolo[3,4-b]pyridine-6-carboxamide] | 409.6 | 236 | 236.2 | 421 |
| CN(C)S(=O)(=O)NC(=O)c1cc(N2CCC(N3CCCC(F)C3)CC2)c2c(C3CCC3)nn(-c3ccc(F)cc3)c2n1 (stereo not drawn) [Compound 563, 3-cyclobutyl-N-(dimethylsulfamoyl)-4-(3-fluoro[1,4'-bipiperidin]-1'-yl)-1-(4-fluorophenyl)-1H-pyrazolo[3,4-b]pyridine-6-carboxamide] | 542.9 | 111 | 298.9 | 198 |
| O=C(NS(=O)(=O)CCO)c1cc(N2CCC(CCN3CCOCC3)CC2)c2c(C3CCC3)nn(-c3ccc(F)cc3)c2n1 [Compound 491, 3-cyclobutyl-1-(4-fluorophenyl)-N-(2-hydroxyethanesulfonyl)-4-{4-[2-(morpholin-4-yl)ethyl]piperidin-1-yl}-1H-pyrazolo[3,4-b]pyridine-6-carboxamide] | 490.9 | 488 | 204.5 | 248 |
